Assay: solubility and physical properties of the active principle
Assay type: physicochemical

SMILES: ClC[Si]12OCCN(CCO1)CCO2 [1-(chloromethyl)silatrane]
- solubility in alcohol (alcohol): difficultly soluble
- solubility in chloroform (chloroform): readily soluble
- sterilizability (dry state): sterilizable in a dry state
- solubility in ether (ether): insoluble
- solubility in water (water): poorly soluble
- hygroscopicity (white crystalline powder): non-hygroscopic

Source: patent publication US4055637A, “Medicinal preparation for healing wounds and treating dermatites using 1-(chloromethyl)silatrane” (priority 1975, dated 1977)
